In a melting point compilation (Tetko et al.; mined from patent text by program, amines drawn as free bases though some values may be those of a salt):

Compound	melting point [°C]
CCCCCCNC(=O)c1cnc(OCC(O)CNC(C)C)nc1 (configuration not stated)	114 to 115
CNC(=O)CC(S)C(CC(C)C)C(=O)NC(Cc1ccc(OC)cc1)C(=O)NC (configuration not stated)	175 to 190
Fc1cccc(Nc2nc(Cl)nc3nc[nH]c23)c1	> 250
CCCCc1nc(CCc2ccccc2)nn1Cc1ccc(-c2ccccc2-n2cnnn2)cc1	156 to 157
CCc1nnc2c(N(C)C)nc3ccccc3n12	155 to 158
O=C(O)CCCCCCCSc1ccc(O)cc1	94 to 95
CCOC(=O)C1=C(C)NC(C)=C(C(=O)OCC)C1c1cccc2nonc12	153 to 155
CS(=O)c1ccc(CCCCl)cc1 (configuration not stated)	46
CC(O)CN(CCc1ccc(Nc2ncc3c(n2)-c2ccccc2C(c2cccc(Br)c2)C3)cc1)Cc1ccccc1 (configuration not stated)	90 to 92
O=C(O)CCC1CCN(C(=O)CN2CCN(c3ccncc3)CC2)CC1	90 to 92
O=[N+]([O-])c1ccc2[nH]cc(CCCBr)c2c1	92 to 95
O=C1NCN(c2ccccc2)C12CCN(CCCn1c(=O)[nH]c3cc(Cl)c(Cl)cc31)CC2	275
CCn1ncc2c1ncc1c(SC)nc3ncnn3c12	198 to 200
CCCNC(=S)n1nc(Oc2c(Cl)cc(C(F)(F)F)cc2Cl)cc1C	71 to 73
CCc1nc2c(N)nc3cc(CCC(=O)N4CCOCC4)ccc3c2n1CC(C)(C)O	237 to 239
O=c1[nH]cc2n1-c1ccc(Cl)cc1C(c1ccccc1F)=NC2	247 to 250
Brc1ccc(C=Cc2ccc(Br)cc2)cc1	213
O=C1C(c2ccccc2)=C(c2ccccc2)C(=O)N1CC(=O)N1c2ccccc2N(Cc2ccccc2)C(=O)C2CCCC21 (configuration not stated)	207 to 208
Sc1nc2ccccc2n1CCCN1CCN(C(c2ccccc2)c2ccccc2)CC1	182
Cn1c(=O)oc2cc(CCO)cnc21	142 to 144
CC(=O)OC[C@@](O)(c1ccc(F)cc1F)[C@H](C)c1ccncn1	102 to 104

Compound	melting point [°C]
CC(=O)c1cnc2c(n1)C(C)(C)CCC2(C)C	68 to 69
O=C(CN1CCCCC1=O)N1CCC(C2c3ncc(Br)cc3CCc3cc(Cl)cc(Br)c32)CC1 (single isomer, unassigned; (+))	138 to 139
Nc1cc2c(Nc3ccc(F)c(Cl)c3)ncnc2cc1OCC1CCOCC1	221
O=C(O)CCC(=O)Nc1ccc(-c2ccncc2)cc1	251 to 252
Cc1cc(NC(=O)CC(C)(C)C)c(C)c2c1OCC2c1ccc(C(C)C)cc1 (configuration not stated)	135 to 136
Cc1cc(NS(=O)(=O)c2ccc(Cl)cc2)cc(C)c1S(=O)(=O)C[N+](=O)[O-]	160 to 162
O=C(CCC1C2CC3CC(C2)CC1C3)N1C(=O)OCC1Cc1ccccc1 (configuration not stated)	82 to 83
C1=NC2=C(CCC1)CSC2	55 to 57
CCCCCCc1nccc2c(CC(=O)O)cccc12	152
O=C1NCCN1C1CCN(CCC2CS(=O)c3ccccc3O2)CC1 (configuration not stated)	145
N#Cc1cccc(-n2ccc3cc(Cl)ccc32)c1	120 to 122
CCC1(C)CC(=O)C(C(=O)Nc2ccc(C(F)(F)F)cc2)C(=O)C1 (configuration not stated)	99 to 100
CC1C(=O)N(Nc2ccccc2)C1C#C[Si](C)(C)C (configuration not stated)	136
CCOC(=O)/C=C/c1cnc(-c2ccc(O)c(C34CC5CC(CC(C5)C3)C4)c2)cn1	212 to 215
O=C(c1cccs1)c1cnn2c(-c3cccc(-c4ccc(CO)cc4)c3)ccnc12	106 to 110
C=C(C)c1cc(NC(=O)N2CCN(c3cc(OC)cc(OC)c3)CC2)c(OC)nc1C	83 to 85
CCc1nc2c(cnn2CC)c(NC2CCOCC2)c1CNC(=O)c1cc(C)cc(C(=O)NCc2ccc(OC)c(-c3cccc(C=O)c3)c2)c1	117 to 119
BrCCCSc1ccc2ncnn2n1	133 to 135
CCOC(=O)[C@@H]1CSCCCCCCCC(CSC(C)=O)C(=O)N1 (some centres not stated)	193 to 196
COC(=O)NC(C)=NS(=O)(=O)NC(C)C	193 to 196
CC(C)(C)S(=O)(=O)C(=[N+]=[N-])S(=O)(=O)C(C)(C)C	121 to 122

More lines, now with the values ahead:

melting point [°C]	Compound
94 to 95	O=C1C[C@@H](O)C[C@H](/C=C/c2ccccc2)O1 (relative stereo)
143 to 144	COc1cc(OC)cc(N2CCN(C(=O)N(C)c3nc4ccccc4nc3OC)CC2)c1
94 to 95	COc1ccc2cc(CCC(C)O)ccc2c1 (configuration not stated)
208 to 211	Cc1nc(O)c(-c2ccccc2)s1
182 to 184	CC(=O)Nc1ccc2nc(CN3CCCCC3)ccc2c1
77 to 78	C=C(F)Cc1ccc(OC)cc1OCc1ccccc1
166 to 168	COc1ccc(Cl)cc1NC(=O)CN1CCN(CC(=O)N2CC=C(c3cccc(C(F)(F)F)c3)n3ncc(C#N)c32)CC1
221 to 222	Cn1c(=O)c(-c2ccc(Cl)cc2Cl)cc2c3cc(-c4cocn4)ccc3n(C)c21
135	COC(=O)c1cc(Cl)c(N)c2c1OCC2
160 to 162	CCCc1c(OCCOc2cccc3c2CCCC3)ccc2c1OC(CCC(=O)O)(CCC(=O)O)CC2=O
168	O=c1c2ccccc2sc2cc(F)ccc12
41 to 44	CS(=O)(=O)SCCOC(=O)Cc1cccc(Nc2c(Cl)cccc2Cl)c1
118 to 119	COC(c1cccc2nc3n(c12)CCCN3c1ccc(Cl)cc1Cl)C1CC1 (configuration not stated)
275 to 278	O=S1(=O)c2ccccc2NC(=S)c2ccc(C(F)(F)F)cc21
119 to 120	COC(=O)c1cncc(OCc2nc(-c3ccccc3)oc2C)c1
115 to 117	COc1cc(C(C)C)c(NC(=O)CN2CCN(CCSc3nc4ccccc4o3)CC2)c(C(C)C)c1
128 to 130	COc1ccc2c(c1)CCC(=COC(=O)c1ccccc1)C2=O
142 to 147	NC1=NN(c2ccc(Cl)cn2)C(c2ccccc2)C1 (configuration not stated)
138 to 142	Cc1ccc(C(=O)N(C)C)cc1-c1nc(NCCN(C)C)nc2c1CNC(=O)N2c1c(F)cccc1F
108 to 109	CCCOc1ccc(C(=O)O)c(OCc2ccc(OCCc3nc(-c4ccccc4)oc3C)cc2)c1
118 to 119	COc1ccc(C[C@H]2CC[C@@H]3[C@@H](CCC(=O)N3Cc3ccccc3)C2)cc1
107 to 109	CCCCC(Cc1ccc(OCCNC(=O)c2ccc(-c3cccc(OC)c3)cc2)cc1)C(=O)O (configuration not stated)
42 to 43	C=CCC12CC(c3ccccc31)c1ccccc12
229 to 230	CCCCOC1c2ccccc2C(=O)N(CC2CC2)C1(/C=C/C(=O)O)CNC(=O)OC(C)(C)C (configuration not stated)
145 to 147	CCCC(=O)OCCOc1ccc2oc3cc(C#N)ccc3c(=O)c2c1
137 to 140	O=C(O)c1ccc(NCCCCc2cccs2)cc1
143 to 144	COC(=O)c1ccc(-c2ccc3cc(C(=O)OCc4ccccc4)c(C45CC6CC(CC(C6)C4)C5)cc3c2)cc1
138 to 140	CC(C)(C)c1ccc(O[C@@H]2CCNC[C@H]2O)cc1 (relative stereo)

melting point [°C]	Compound
143 to 145	C=CCc1ccccc1OC(CC)C(=O)OC1CC(O)C=C2C=CC(C)C(CCC3CC(O)CC(=O)O3)C21 (mixture of isomers)
249 to 252	CC(C)(C)C(NC(=O)c1ccc(Cl)cc1)Nc1c(Nc2cnc(F)c(Br)c2)c(=O)c1=O (configuration not stated)
120 to 121	C=Cc1ccc(NC(=O)OCC2(C)COC(=O)OC2)cc1
104 to 105	CCOP(=O)(OCC)C(CC(C(=O)Nc1ccccc1)C(=O)c1ccccc1)P(=O)(OCC)OCC (configuration not stated)
125 to 127	COC(=O)[C@@H]1C(=O)N(C)c2ccccc2C[C@H]1c1ccc2c(c1)OCO2 (racemic)
215 to 218	COc1cc(C(=O)NS(=O)(=O)c2ccccc2C)ccc1Cc1cn(CC(=O)N(C)C)c2ccc(NC(=O)CC3CCCC3)cc12
119 to 120	O=C(O)CCc1cccc(CCc2nc(-c3ccccc3)c(-c3ccccc3)o2)c1
131	COC(=O)NC(=Nc1cc(OS(=O)(=O)c2cccc(C(F)(F)F)c2)ccc1NC(N)=O)NC(=O)OC
141 to 144	O=S(=O)(Cc1n[nH]c(-c2ccccc2)n1)c1ccccc1
120 to 123	COCCS(=O)(=O)c1ccccc1S(N)(=O)=O
84 to 86	CC(C(=O)O)c1ccc(Oc2ccc(F)cc2)cc1 (configuration not stated)
90 to 95	COc1cc(OCc2cccnc2)ccc1/C=C/c1cc(/C=C/c2ccc3cc[nH]c3c2)n[nH]1
168 to 170	COc1cc(N=C(NC#N)Oc2ccccc2)cc(C(F)(F)F)c1
232 to 234	O=C1c2ccccc2C(=O)c2sccc21
184	COC(=O)c1cc2cc(C(=O)c3cccc(CC#N)c3)sc2s1
121 to 123	COc1cc2ncnc(N3CCN(C(=O)Nc4ccccc4)CC3)c2cc1OC
105 to 106	CON(C)S(=O)(=O)c1ccccc1[N+](=O)[O-]
176	COc1cc(Cn2c(=O)n(C3CCCCC3)c3cc(Cl)ccc32)ccc1[N+](=O)[O-]
135 to 137	CCCOc1cc2c(c3c(=O)c(-c4ccc(OC)cc4)cn(CCCN4CCOCC4)c13)CCC2
177 to 178	N#CC1c2cccc(Br)c2C=CN1C(=O)c1ccccc1 (configuration not stated)
166 to 168	COc1ccccc1N(CCN1CCC(C(=O)c2ccc(F)cc2)CC1)C(=O)c1ccc([N+](=O)[O-])cc1
114 to 115	COc1ccc(C(=O)c2ccc(OCCc3nc(-c4ccccc4)oc3C)nc2)c(O)c1
184 to 185	NC(=O)CC1(c2ccccc2)C(=O)Nc2ccccc21 (configuration not stated)
302 to 304	O=C1c2ccc(O)cc2C(=O)N1c1ccc(O)cc1
148 to 149	Cc1ncnc(-c2ccc(Oc3ccc([N+](=O)[O-])cc3)cc2)n1
100 to 104	COC1OCC[C@@H]1NC(=O)[C@H](CC(C)C)NC(=O)CNC(=O)C(C)(C)Oc1ccc2c(c1)Nc1ccccc1S2 (some centres not stated)
127 to 128	Cc1cccc(N2CCN(CCCON3C(=O)c4ccccc4C3=O)CC2)c1
